Measured values reported in patent publication US9434711B2 (Janssen Pharmaceutica, NV, priority 2007, dated 2016).

Target: canine TRPM8 (Canis lupus familiaris, UniProt Q1A7N1)
Experiment: In Vitro Canine TRPM8 Functional Assay (Ca2+ fluorescence, icilin activation)
Type: cell-based
Details: for IC50: HEK293 cells stably expressing canine TRPM8, icilin activation, eight-point dose-response, read-out: IC50; for inhibition at 0.2 µM: compound at 0.2 μM, canine TRPM8, icilin activation, read-out: % Inh @ 0.2
How it was run: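 HEK293 cells stably expressing canine TRPM8 loaded with Calcium 3 dye; compound added and Ca2+ fluorescence monitored 5 min before icilin at a final level giving ~80% maximal response, read on FLIPR or FDSS. EC50 or IC50 from eight-point dose-response, quadruplicate wells per point.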

canine TRPM8, sequence (Q1A7N1 1-1104): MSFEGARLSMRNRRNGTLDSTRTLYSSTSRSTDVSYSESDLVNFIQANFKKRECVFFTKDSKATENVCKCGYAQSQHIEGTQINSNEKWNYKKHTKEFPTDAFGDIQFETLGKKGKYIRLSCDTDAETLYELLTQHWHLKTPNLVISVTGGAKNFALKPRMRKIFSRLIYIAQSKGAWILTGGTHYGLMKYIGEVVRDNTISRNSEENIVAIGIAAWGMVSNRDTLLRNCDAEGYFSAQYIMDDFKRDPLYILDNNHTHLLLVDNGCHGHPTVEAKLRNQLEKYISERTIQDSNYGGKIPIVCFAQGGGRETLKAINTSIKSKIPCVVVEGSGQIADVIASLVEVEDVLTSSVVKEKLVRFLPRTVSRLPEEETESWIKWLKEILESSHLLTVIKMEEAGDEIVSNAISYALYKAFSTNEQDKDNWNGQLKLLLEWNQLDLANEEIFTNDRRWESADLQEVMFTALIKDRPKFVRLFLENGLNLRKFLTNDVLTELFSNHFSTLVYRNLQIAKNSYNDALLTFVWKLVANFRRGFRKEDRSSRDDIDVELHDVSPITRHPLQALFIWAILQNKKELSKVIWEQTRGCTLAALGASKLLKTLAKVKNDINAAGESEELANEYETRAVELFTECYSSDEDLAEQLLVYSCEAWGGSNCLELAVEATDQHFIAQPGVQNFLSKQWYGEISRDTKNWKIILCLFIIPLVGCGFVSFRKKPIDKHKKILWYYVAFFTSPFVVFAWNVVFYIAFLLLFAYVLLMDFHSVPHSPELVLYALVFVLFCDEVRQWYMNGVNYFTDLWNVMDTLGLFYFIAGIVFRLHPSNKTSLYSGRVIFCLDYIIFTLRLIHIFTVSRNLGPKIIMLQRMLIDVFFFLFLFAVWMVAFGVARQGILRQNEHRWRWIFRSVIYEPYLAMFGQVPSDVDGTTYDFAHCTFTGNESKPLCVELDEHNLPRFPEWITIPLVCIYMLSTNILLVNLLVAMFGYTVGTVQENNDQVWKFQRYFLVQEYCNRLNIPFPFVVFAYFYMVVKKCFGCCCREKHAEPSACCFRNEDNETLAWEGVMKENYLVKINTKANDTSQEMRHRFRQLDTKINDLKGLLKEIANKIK

COc1ncccc1S(=O)(=O)N(Cc1ccc(F)c(C(F)(F)F)c1)c1sc2ccccc2c1C [Compound 357, N-(3-Methyl-benzo[b]thiophen-2-yl)-N-(4-fluoro-3-trifluoromethyl-benzyl)-2-methoxy-pyridin-3-ylsulfonamide]
IC50: 19 nM | inhibition at 0.2 µM: 95%

Cc1c(N(Cc2ccc(F)c(C(F)(F)F)c2)S(=O)(=O)c2cccnc2N(C)C)sc2ccccc12 [Compound 358, N-(3-Methyl-benzo[b]thiophen-2-yl)-N-(4-fluoro-3-trifluoromethyl-benzyl)-2-dimethylamino-pyridin-3-yl-sulfonamide]
IC50: 12 nM | inhibition at 0.2 µM: 92%

COc1ccc(S(=O)(=O)N(Cc2ccc(F)c(C(F)(F)F)c2)c2sc3ccccc3c2C)cn1 [Compound 359]
IC50: 17 nM | inhibition at 0.2 µM: 93%

Cc1c(N(Cc2ccc(F)c(C(F)(F)F)c2)S(=O)(=O)c2cnccc2N(C)C)sc2ccccc12 [Compound 360, N-(3-Methyl-benzo[b]thiophen-2-yl)-N-(4-fluoro-3-trifluoromethyl-benzyl)-4-dimethylamino-pyridin-3-yl-sulfonamide]
IC50: 41 nM

Cc1c(N(Cc2ccc(F)c(C(F)(F)F)c2)S(=O)(=O)c2ccc(N(C)C)nc2)sc2ccccc12 [Compound 360]
inhibition at 0.2 µM: 92%

CS(=O)(=O)CS(=O)(=O)N(Cc1ccc(F)c(C(F)(F)F)c1)c1cc2ccccc2s1 [Compound 362, N-(Benzo[b]thiophen-2-yl)-N-(4-fluoro-3-trifluoromethyl-benzyl)-C-methanesulfonyl-methanesulfonamide]
inhibition at 0.2 µM: 67%

CCCCN(c1sc2ccccc2c1C)S(C)(=O)=O [Compound 363, N-(Butyl)-N-(3-methyl-benzo[b]thiophen-2-yl)-methanesulfonamide]
IC50: 51 nM | inhibition at 0.2 µM: 84%

Cc1c(N(CCC(F)(F)F)S(C)(=O)=O)sc2ccccc12 [Compound 364, N-(3-Methyl-benzo[b]thiophen-2-yl)-N-(3,3,3-trifluoro-propyl)-methanesulfonamide]
IC50: 44 nM | inhibition at 0.2 µM: 77%

Cc1c(N(CC2CC2)S(C)(=O)=O)sc2ccccc12 [Compound 365, N-(Cyclopropylmethyl)-N-(3-methyl-benzo[b]thiophen-2-yl)-methanesulfonamide]
inhibition at 0.2 µM: 38%

Cc1c(N(CCOC(C)(C)C)S(C)(=O)=O)sc2ccccc12 [Compound 366, N-(2-tert-Butoxy-ethyl)-N-(3-methyl-benzo[b]thiophen-2-yl)-methanesulfonamide]
IC50: 40 nM | inhibition at 0.2 µM: 85%

Cc1c(N(Cc2ccc(F)c(F)c2)S(C)(=O)=O)sc2ccccc12 [Compound 367, N-(3,4-Difluoro-benzyl)-N-(3-methyl-benzo[b]thiophen-2-yl)-methanesulfonamide]
IC50: 10 nM | inhibition at 0.2 µM: 91%

Cc1c(N(Cc2ccc(F)c(C(F)(F)F)c2)S(C)(=O)=O)sc2ccccc12 [Compound 368, N-(4-Fluoro-3-trifluoromethyl-benzyl)-N-(3-methyl-benzo[b]thiophen-2-yl)-methanesulfonamide]
IC50: 18 nM | inhibition at 0.2 µM: 96%

Cc1c(N(Cc2ccc(OC(F)(F)F)cc2)S(C)(=O)=O)sc2ccccc12 [Compound 369, N-(3-Methyl-benzo[b]thiophen-2-yl)-N-(4-trifluoromethoxy-benzyl)-methanesulfonamide]
IC50: 18 nM | inhibition at 0.2 µM: 98%

N#Cc1cccc(S(=O)(=O)N(Cc2ccc(F)c(C(F)(F)F)c2)c2cc3ccccc3s2)c1 [Compound 370, N-(Benzo[b]thiophen-2-yl)-N-(4-fluoro-3-trifluoromethyl-benzyl)-3-cyano-benzenesulfonamide]
inhibition at 0.2 µM: 29%

Cc1c(N(CCCC(F)(F)F)S(=O)(=O)c2ccc(C(C)(C)O)cc2)sc2ccccc12 [Compound 371, N-(3-Methyl-benzo[b]thiophen-2-yl)-N-(4,4,4-trifluoro-butyl)-4-(1-hydroxy-1-methyl-ethyl)-benzenesulfonamide]
IC50: 9 nM | inhibition at 0.2 µM: 94%
